Assay results taken from patent publication US20240003908A1, “POLYOL BIOMARKERS FOR CONGENITAL DISORDERS OF GLYCOSYLATION” (Mayo Foundation for Medical Education and Research, priority 2020, published 2024).
Where “and” joins values, the source holds several entries; their conditions need not be identical. Identical values can stand only once. Marks after values point to notes of the source that are not given here.

Tests used:
Format in all cases: in vivo, human
[1] = test system: urine sorbitol and mannitol; experiment: Urine polyols (GC/MS) in patients with other CDG, post-treatment with epalrestat
Description: Urine specimens were collected from patients known to have a CDG. The samples were spiked with a mixture of labeled internal standards, allowed to equilibrate, and evaporated. The dry residue was derivatized to form trimethylsilyl esters then extracted with hexane. Specimens were analyzed by GC/MS, with selected ion monitoring using ammonia chemical ionization and a stable isotope dilution method (Jansen et al. Clin Chim Acta 1986, 157:277-294; and Kaur et al., Eur J Med Genet 2019, 62(8):103708). Sorbitol levels were considered elevated when they were above 10 mmol/mol creatinine, and mannitol levels were considered elevated when they were above 15 mmol/mol creatinine.

[2] = Epalrestat plasma pharmacokinetics (LC-MS/MS) in patient P1
Description: Pharmacokinetics: Epalrestat plasma concentrations were measured using an LC-MS/MS assay that was validated according to principles outlined in FDA Guidance Documents. Epalrestat-d5 was utilized as the internal standard. The mass spectrometer was coupled to a Waters Acquity H class ultra-performance liquid chromatography system (Milford, MA). Data were acquired and analyzed with Waters MassLynx v4.1 software. The chromatographic separation of epalrestat and the internal standard was accomplished using an Agilent Infinity Lab Poroshell 120 EC-C18 column, 2.1×100 mm, 2.7 μm (ChromTech, Apple Valley, MN) with an Agilent Poroshell 120 EC-C18 precolumn, 2.1×5 mm, 2.7 μm (ChromTech). Plasma samples were analyzed after protein precipitation with methanol, concentration to dryness under nitrogen, and reconstitution in methanol:water (1:1 v/v). Pharmacokinetics were estimated by non-linear least squares regression using the program Phoenix WinNonlin.

[3] = test system: blood transferrin glycosylation; experiment: Blood transferrin glycoform ratio analysis by mass spectrometry in patient P1; details: for A-oligo/Di-oligo: control ratio ≤ 0.01; for Mono-oligo/Di-oligo: control ratio ≤ 0.06
Description: (§1) Patient assessment: Prior to the first dose of epalrestat and at 1, 2, 3, 6, 8, 9, 12 months during treatment, concomitant medications and vital signs were recorded and the patient was evaluated using the NPCRS. In addition, blood was drawn for serum chemistry, hematology, and plasma levels of epalrestat. Urine was collected for polyol measurement at baseline and twice over the course of 12 months of therapy.
(§2) Safety and efficacy: Safety measures included vital signs, change in CBC, liver function (INR, bilirubin, transaminases, and albumin) in blood, change in liver elastography, and following the pharmacokinetic profile of epalrestat. The efficacy of epalrestat was studied by clinical follow up (physical exam, NPCRS, ICARS), standard laboratory tests, and transferrin glycoform analysis by mass spectrometry.

child with PMM2-CDG = experiment: Single patient (P1) study: clinical efficacy (ICARS, NPCRS, BMI, weight)
Description: Prospectively collected clinical and laboratory data in 24 PMM2-CDG patients: The genetic, laboratory, metabolic, and clinical data of 24 PMM2-CDG patients were evaluated (TABLES 2A and 2B). Disease severity was assessed by Nijmegen Pediatric CDG Rating Scale (NPCRS), (most severe=82; mild (0-14), moderate (15-25), severe (>26)) (Achouitar et al., J Inherit Metab Dis 34:923-927, 2011; and Martinez-Monseny et al., Ann Neurol 85:740-751, 2019). Patient P1 and twin patients P4 and P5 also were discussed elsewhere (Qian et al., JIMD Rep 56:27-33, 2020; and Jaeken et al., Ped Res 14:179, 1980). P1, enrolled in a single IND clinical trial, was additionally evaluated by the International cooperative ataxia rating scale (ICARS) (Trouillas et al., J Neurol Sci 145:205-211, 1997), which assesses limb ataxia, dysarthria, posture and gait disturbances, and oculomotor disorders (0=normal; 100=most severe). Urinary polyols including sorbitol and mannitol were analyzed by GC/MS in 23 out of the 24 PMM2-CDG patients (patient P6 was deceased). In addition, functional in vitro data was collected from the fibroblasts of P1-P6, P8, P10, P17, P19, and P24.
Study design: An open label, single patient (P1) compassionate use study was designed to assess the safety and tolerability of oral epalrestat therapy in a child with PMM2-CDG.
as §1
Drug administration: Epalrestat was administered orally, 3 times per day (TID) before meals in a divided dose (0.8 mg/kg/day; 5 mg TID) of epalrestat (Ono Pharmaceuticals, Osaka, Japan) starting on Day 1 of the study.
as §2

Compound: CC(/C=C1\SC(=S)N(CC(=O)O)C1=O)=C\c1ccccc1 [epalrestat]
- Mannitol (urine) ([1]; MAN1B1-CDG patient, second sample, after off-label epalrestat, first sample 14.92): 2) 10.13 mmol/mol creatinine
- Sorbitol (urine) ([1]; MAN1B1-CDG patient, second sample, post-treatment with epalrestat, first sample 10.44): 2) 7.222^‡ mmol/mol creatinine
- Sorbitol (urine) ([1]; SLC39A8-CDG patient, marked post-treatment with epalrestat): 18.0^‡ mmol/mol creatinine
- concentration at 8 h ([2]; human, plasma, oral, 5 mg, patient P1, after eight hours, read-out: trough level before the next dose): 23.4 ng/mL and 100 nM
- AUC ([2]; human, plasma, oral, patient P1, after a 5 mg dose, read-out: systemic exposure (AUC)): 2790 ng·h/mL
- half-life ([2]; human, plasma, po, 5 mg, patient P1, oral dose, plasma, read-out: t½ (converted)): ~62.4 min
- oral clearance ([2]; patient P1, after a 5 mg dose): 1.8 L/h
- time of peak concentration after administration ([2]; patient P1, oral 0.27 mg/kg (5 mg) dose): one
- peak concentration in plasma ([2]; patient P1, oral 0.27 mg/kg (5 mg) dose, 0.27 mg/kg): 1125 ng/ml and 3.5 μM
- plasma concentration over time profile ([2]; patient P1, oral dose): rapid absorption and elimination
- t½ ([2]; patient P1, oral dose, plasma): 1 to 2 h
- A-oligo/Di-oligo ([3]; patient P1, 1st month of epalrestat, prior to first dose 0.005): 0.005
- Mono-oligo/Di-oligo ([3]; patient P1, 1st month of epalrestat, prior to first dose 0.09): 0.14
- A-oligo/Di-oligo ([3]; patient P1, 2nd month): 0.01
- Mono-oligo/Di-oligo ([3]; patient P1, 2nd month): 0.07
- A-oligo/Di-oligo ([3]; patient P1, 3rd month): 0.004
- Mono-oligo/Di-oligo ([3]; patient P1, 3rd month): 0.08
- A-oligo/Di-oligo ([3]; patient P1, 6th month): 0.003
- Mono-oligo/Di-oligo ([3]; patient P1, 6th month): 0.06
- A-oligo/Di-oligo ([3]; patient P1, 8th month): 0.004
- Mono-oligo/Di-oligo ([3]; patient P1, 8th month): 0.06
- A-oligo/Di-oligo ([3]; patient P1, 9th month): 0.004
- Mono-oligo/Di-oligo ([3]; patient P1, 12th month, after dose correction): 0.06
- A-oligo/Di-oligo ([3]; patient P1, 12th month): 0.004
- body mass index (BMI) (child with PMM2-CDG; patient P1, 12-month-follow-up, previous trough 14.8 (30th percentile)): 18.5
- ICARS score (child with PMM2-CDG; patient P1, epalrestat 0.8 mg/kg/day, within 12 months, from a score of 56): 42
- NPCRS score (child with PMM2-CDG; patient P1, months 6, 9, and 12, baseline 21-24): 20-21
